Test results from ChEMBL document CHEMBL5500356, “Design, synthesis, and biological evaluation of novel benzimidazole derivatives as anti-cervical cancer agents through PI3K/Akt/mTOR pathway and tubulin inhibition” (Eur J Med Chem, 2024).
Active and inactive are the calls of the source. The rule behind the calls is not given here.

Assays:
SiHa [1] = test: Antiproliferative activity against human SiHa cells assessed as cell viability incubated for 48 hrs by MTT assay; assay type: functional, cell-based
HeLa = test: Antiproliferative activity against human HeLa cells assessed as cell viability incubated for 48 hrs by MTT assay; assay type: functional, cell-based
Ca-Ski = test: Antiproliferative activity against human Ca-Ski cells assessed as cell viability incubated for 48 hrs by MTT assay; assay type: functional, cell-based
[2] = Cytotoxicity against human L02 cells assessed as cell viability incubated for 48 hrs by MTT assay; assay type: toxicity, cell-based
[3] = Cytotoxicity against human HEK293T cells assessed as cell viability incubated for 48 hrs by MTT assay; assay type: toxicity, cell-based, HEK-293T
SiHa [4] = test: Induction of apoptosis in human SiHa cells assessed as late apoptotic cells at 16 uM incubated for 24 hr by flow cytometry based annexin V-FITC/PI double-staining analysis (reference value: 8.67%); assay type: functional
SiHa [5] = test: Induction of apoptosis in human SiHa cells assessed as early apoptotic cells at 16 uM incubated for 24 hr by flow cytometry based annexin V-FITC/PI double-staining analysis (reference value: 2.95%); assay type: functional
SiHa [6] = test: Induction of cell cycle arrest in human SiHa cells assessed as accumulation cells at G0/G1 phase at 16 uM measured after 24 hrs by flow cytometry (reference value: 80.45%); assay type: functional
SiHa [7] = test: Induction of cell cycle arrest in human SiHa cells assessed as accumulation cells at G2/M phase at 16 uM measured after 24 hrs by flow cytometry (reference value: 5.24%); assay type: functional
SiHa [8] = test: Induction of cell cycle arrest in human SiHa cells assessed as accumulation cells at S phase at 16 uM measured after 24 hrs by flow cytometry (reference value: 14.31%); assay type: functional
[9] = Acute toxicity in AB-wild type zebrafish embryo assessed as mortalities at 400 uM measured after 96 hrs; parameters: species or system Danio rerio; conditions: in vivo, read-out: Activity
[10] = Acute toxicity in AB-wild type zebrafish embryo assessed as malformation rate at 400 uM measured after 96 hrs; parameters: species or system Danio rerio; conditions: in vivo
SiHa [11] = test: Induction of apoptosis in human SiHa cells assessed as late apoptotic cells at 4 uM incubated for 24 hr by flow cytometry based annexin V-FITC/PI double-staining analysis (reference value: 8.67%); assay type: functional
SiHa [12] = test: Induction of apoptosis in human SiHa cells assessed as early apoptotic cells at 4 uM incubated for 24 hr by flow cytometry based annexin V-FITC/PI double-staining analysis (reference value: 2.95%); assay type: functional
SiHa [13] = test: Induction of apoptosis in human SiHa cells assessed as late apoptotic cells at 8 uM incubated for 24 hr by flow cytometry based annexin V-FITC/PI double-staining analysis (reference value: 8.67%); assay type: functional
SiHa [14] = test: Induction of apoptosis in human SiHa cells assessed as early apoptotic cells at 8 uM incubated for 24 hr by flow cytometry based annexin V-FITC/PI double-staining analysis (reference value: 2.95%); assay type: functional
SiHa [15] = test: Induction of cell cycle arrest in human SiHa cells assessed as accumulation cells at G0/G1 phase at 4 uM measured after 24 hrs by flow cytometry (reference value: 80.45%); assay type: functional
SiHa [16] = test: Induction of cell cycle arrest in human SiHa cells assessed as accumulation cells at G2/M phase at 4 uM measured after 24 hrs by flow cytometry (reference value: 5.24%); assay type: functional
SiHa [17] = test: Induction of cell cycle arrest in human SiHa cells assessed as accumulation cells at S phase at 4 uM measured after 24 hrs by flow cytometry (reference value: 14.31%); assay type: functional
SiHa [18] = test: Induction of cell cycle arrest in human SiHa cells assessed as accumulation cells at G0/G1 phase at 8 uM measured after 24 hrs by flow cytometry (reference value: 80.45%); assay type: functional
SiHa [19] = test: Induction of cell cycle arrest in human SiHa cells assessed as accumulation cells at G2/M phase at 8 uM measured after 24 hrs by flow cytometry (reference value: 5.24%); assay type: functional
SiHa [20] = test: Induction of cell cycle arrest in human SiHa cells assessed as accumulation cells at S phase at 8 uM measured after 24 hrs by flow cytometry (reference value: 14.31%); assay type: functional
SiHa [21] = test: Inhibition of PI3K phosphorylation in human SiHa cells at 4 to 16 uM incubated for 24 hrs by Western blot analysis; assay type: cell-based; conditions: dose 4-16 µM
[22] = molecular target: RAC-alpha serine/threonine-protein kinase (Homo sapiens) (UniProt P31749); test: Inhibition of Akt phosphorylation in human SiHa cells at 4 to 16 uM incubated for 24 hrs by Western blot analysis; assay type: cell-based; conditions: dose 4-16 µM
[23] = molecular target: Serine/threonine-protein kinase mTOR (Homo sapiens) (UniProt P42345); test: Inhibition of mTOR phosphorylation in human SiHa cells at 4 to 16 uM incubated for 24 hrs by Western blot analysis; assay type: cell-based; conditions: dose 4-16 µM
SiHa [24] = test: Effect on PI3K protein expression in human SiHa cells at 4 to 16 uM incubated for 24 hrs by Western blot analysis; assay type: functional, cell-based; conditions: dose 4-16 µM
SiHa [25] = test: Effect on Akt protein expression in human SiHa cells at 4 to 16 uM incubated for 24 hrs by Western blot analysis; assay type: functional, cell-based; conditions: dose 4-16 µM
SiHa [26] = test: Effect on mTOR protein expression in human SiHa cells at 4 to 16 uM incubated for 24 hrs by Western blot analysis; assay type: functional, cell-based; conditions: dose 4-16 µM
Tubulin (Homo sapiens) [27] = molecular target: T1, Tubulin (Homo sapiens) (UniProt P68371+Q9H4B7+P0DPH7+P68366+Q13509+Q71U36+P04350+Q3ZCM7+P07437+P68363+Q9BQE3+Q6PEY2+Q13885+Q9BVA1+Q9BUF5); test: Inhibition of tubulin formation in human SiHa cells incubated for 24 hrs by Western blot analysis; assay type: cell-based
Tubulin (Homo sapiens) [28] = molecular target: T1, Tubulin (Homo sapiens); test: Inhibition of tubulin polymerization in human SiHa cells incubated for 24 hrs by DAPI fluorescence staining assay; assay type: cell-based; conditions: dose 4-16 µM
[29] = Acute toxicity in AB-wild type zebrafish embryo assessed as mortalities at 12.5 uM measured after 96 hrs; parameters: species or system Danio rerio; conditions: in vivo, read-out: Activity
[30] = Acute toxicity in AB-wild type zebrafish embryo assessed as mortalities at 25 uM measured after 96 hrs; parameters: species or system Danio rerio; conditions: in vivo, read-out: Activity
[31] = Acute toxicity in AB-wild type zebrafish embryo assessed as mortalities at 50 uM measured after 96 hrs; parameters: species or system Danio rerio; conditions: in vivo, read-out: Activity
[32] = Acute toxicity in AB-wild type zebrafish embryo assessed as mortalities at 100 uM measured after 96 hrs; parameters: species or system Danio rerio; conditions: in vivo, read-out: Activity
[33] = Acute toxicity in AB-wild type zebrafish embryo assessed as mortalities at 200 uM measured after 96 hrs; parameters: species or system Danio rerio; conditions: in vivo, read-out: Activity
[34] = Acute toxicity in AB-wild type zebrafish embryo assessed as malformation rate at 12.5 uM measured after 96 hrs; parameters: species or system Danio rerio; conditions: in vivo
[35] = Acute toxicity in AB-wild type zebrafish embryo assessed as malformation rate at 25 uM measured after 96 hrs; parameters: species or system Danio rerio; conditions: in vivo
[36] = Acute toxicity in AB-wild type zebrafish embryo assessed as malformation rate at 50 uM measured after 96 hrs; parameters: species or system Danio rerio; conditions: in vivo
[37] = Acute toxicity in AB-wild type zebrafish embryo assessed as malformation rate at 100 uM measured after 96 hrs; parameters: species or system Danio rerio; conditions: in vivo
[38] = Acute toxicity in AB-wild type zebrafish embryo assessed as malformation rate at 200 uM measured after 96 hrs; parameters: species or system Danio rerio; conditions: in vivo

Sequence of RAC-alpha serine/threonine-protein kinase (Homo sapiens) (P31749 whole entry): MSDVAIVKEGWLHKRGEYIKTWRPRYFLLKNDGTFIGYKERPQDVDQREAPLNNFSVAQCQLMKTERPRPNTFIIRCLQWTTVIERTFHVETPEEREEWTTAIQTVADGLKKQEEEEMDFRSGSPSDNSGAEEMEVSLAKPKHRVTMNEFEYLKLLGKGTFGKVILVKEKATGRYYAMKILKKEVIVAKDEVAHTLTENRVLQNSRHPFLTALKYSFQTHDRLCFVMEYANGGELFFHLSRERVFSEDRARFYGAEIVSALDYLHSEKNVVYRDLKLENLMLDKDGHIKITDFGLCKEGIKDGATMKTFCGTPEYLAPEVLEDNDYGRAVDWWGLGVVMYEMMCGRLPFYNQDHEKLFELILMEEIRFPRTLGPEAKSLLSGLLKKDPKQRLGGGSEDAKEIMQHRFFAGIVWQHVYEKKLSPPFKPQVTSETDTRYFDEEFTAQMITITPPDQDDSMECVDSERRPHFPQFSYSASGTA

COc1ccc(C#Cc2cc3[nH]c(-c4cc(OC)c(OC)c(OC)c4)nc3cc2N2CCN(C)CC2)cc1
IC50 (SiHa [1]): 3.13 µM | IC50 (HeLa): 2.07 µM | IC50 (Ca-Ski): 1.39 µM | IC50 at 48 h [2]: 2.29 µM | IC50 at 48 h [3]: 0.41 µM

COc1cc(OC)c(-c2nc3cc(N4CCOCC4)c(C#Cc4ccccc4F)cc3[nH]2)cc1OC
IC50 (SiHa [1]): 27.2 µM | IC50 (HeLa): 20.1 µM | IC50 (Ca-Ski): 11.5 µM | IC50 at 48 h [2]: 9.1 µM | IC50 at 48 h [3]: 4.83 µM

COc1cc(-c2nc3cc(N4CCN(C)CC4)c(C#Cc4ccc(Cl)cc4)cc3[nH]2)cc(OC)c1OC
IC50 (SiHa [1]): 5.49 µM | IC50 (HeLa): 3.45 µM | IC50 (Ca-Ski): 3.97 µM | IC50 at 48 h [2]: 2.07 µM | IC50 at 48 h [3]: 4.12 µM

COc1cc(OC)c(-c2nc3cc(N4CCOCC4)c(C#Cc4ccc(C(F)(F)F)cc4)cc3[nH]2)cc1OC
IC50 (SiHa [1]): > 100 µM | IC50 (HeLa): 29.3 µM | IC50 (Ca-Ski): > 100 µM | IC50 at 48 h [2]: > 100 µM | IC50 at 48 h [3]: > 100 µM

COc1cc(-c2nc3cc(N4CCOCC4)c(C#Cc4ccccc4)cc3[nH]2)cc(OC)c1OC
IC50 (SiHa [1]): 7.07 µM | IC50 (HeLa): 8.07 µM | IC50 (Ca-Ski): 6.45 µM | IC50 at 48 h [2]: 9.09 µM | IC50 at 48 h [3]: 3.73 µM

Nc1cc(C(F)(F)F)c(-c2cc(N3CCOCC3)nc(N3CCOCC3)n2)cn1 [BUPARLISIB]
IC50 (SiHa [1]): 11.9 µM | IC50 (HeLa): 9.06 µM | IC50 (Ca-Ski): 0.74 µM | IC50 at 48 h [2]: 59.2 µM | IC50 at 48 h [3]: 6.11 µM | Activity (SiHa [4]): 7.83% | Activity (SiHa [5]): 10.27% | Activity (SiHa [6]): 62.27% | Activity (SiHa [7]): 28.47% | Activity (SiHa [8]): 11.27% | mortality at 96 h, 400 µM [9]: 0% | Activity [10]: 0%

COc1cc(OC)c(-c2nc3cc(N4CCOCC4)c(C#Cc4ccc(Cl)cc4)cc3[nH]2)cc1OC
IC50 (SiHa [1]): > 100 µM | IC50 (HeLa): 16.7 µM | IC50 (Ca-Ski): > 100 µM | IC50 at 48 h [2]: > 100 µM | IC50 at 48 h [3]: 36.1 µM

COc1ccc(C#Cc2cc3[nH]c(-c4cc(OC)c(OC)c(OC)c4)nc3cc2N2CCOCC2)cc1
IC50 (SiHa [1]): 26.8 µM | IC50 (HeLa): 3.67 µM | IC50 (Ca-Ski): 9.11 µM | IC50 at 48 h [2]: 8.82 µM | IC50 at 48 h [3]: 2.18 µM

COc1cc(-c2nc3cc(N4CCN(C)CC4)c(C#Cc4ccccc4F)cc3[nH]2)cc(OC)c1OC
IC50 (SiHa [1]): 3.38 µM | IC50 (HeLa): 5.03 µM | IC50 (Ca-Ski): 7.24 µM | IC50 at 48 h [2]: 21.1 µM | IC50 at 48 h [3]: 24 µM | Activity (SiHa [11]): 8.49% | Activity (SiHa [12]): 8.55% | Activity (SiHa [13]): 16.43% | Activity (SiHa [14]): 66.56% | Activity (SiHa [4]): 15.86% | Activity (SiHa [5]): 82.7% | Activity (SiHa [15]): 82.4% | Activity (SiHa [16]): 7.26% | Activity (SiHa [17]): 9.89% | Activity (SiHa [18]): 82.37% | Activity (SiHa [19]): 8.92% | Activity (SiHa [20]): 8.71% | Activity (SiHa [6]): 55.29% | Activity (SiHa [7]): 28.37% | Activity (SiHa [8]): 16.33% | inhibition (SiHa [21]): Active | inhibition [22]: Active | inhibition [23]: Active | Activity (SiHa [24]): inactive | Activity (SiHa [25]): inactive | Activity (SiHa [26]): inactive | inhibition (Tubulin (Homo sapiens) [27]): Dose-Dependent Effect | inhibition (Tubulin (Homo sapiens) [28]): Dose-Dependent Effect | mortality at 96 h, 12.5 µM [29]: 0% | mortality at 96 h, 25 µM [30]: 0% | mortality at 96 h, 50 µM [31]: 0% | mortality at 96 h, 100 µM [32]: 0% | mortality at 96 h, 200 µM [33]: 0% | mortality at 96 h, 400 µM [9]: 0% | Activity [34]: 0% | Activity [35]: 0% | Activity [36]: 0% | Activity [37]: 0% | Activity [38]: 0% | Activity [10]: 0%

COc1cc(-c2nc3cc(N4CCN(C)CC4)c(C#Cc4ccccc4Cl)cc3[nH]2)cc(OC)c1OC
IC50 (SiHa [1]): 1.4 µM | IC50 (HeLa): 1.73 µM | IC50 (Ca-Ski): 3.15 µM | IC50 at 48 h [2]: 1.29 µM | IC50 at 48 h [3]: 0.8 µM

COc1cc(-c2nc3cc(N4CCN(C)CC4)c(C#Cc4ccccc4)cc3[nH]2)cc(OC)c1OC
IC50 (SiHa [1]): 5.05 µM | IC50 (HeLa): 4.96 µM | IC50 (Ca-Ski): 4.34 µM | IC50 at 48 h [2]: 3.82 µM | IC50 at 48 h [3]: 1.2 µM
